Like-named read-outs stand apart in the source and are kept apart here.
Assays:
[1] = test system: S. aureus MRSA—clinical isolate C1926; test: Microdilution broth MIC; assay type: cell-based; details: Staphylococcus aureus, 24 h
[2] = test system: E. coli K12, CCM 7929; test: Microdilution broth MIC; assay type: cell-based; details: Escherichia coli
Protocol: (§1) In vitro antibacterial activity of the prepared amp-DDNs (DnP6-1C12, DnP3-1C12, DnP3-2C12, and DnP3-2C18) was tested on a panel of four G+ (Staphylococcus aureus CCM 4516, methicillin-resistant S. aureus clinical isolate C1923, Staphylococcus epidermidis clinical isolate C1936, and vancomycin-resistant Enterococcus faecium clinical isolate S2484) and four G-bacterial strains (Escherichia coli K12, CCM 7929, E. coli clinical isolate A1235, extended-spectrum β-lactamase-producing (ESBL+) Klebsiella pneumoniae clinical isolate C1914, and multiresistant Pseudomonas aeruginosa clinical isolate A1245). CCM collection strains were obtained from the Czech Collection of Microorganisms. All clinical isolates were obtained during routine procedures in the clinical laboratory at the University Hospital Hradec Králové. All strains were stored at −70 °C in the Cryobank according to the manufacturer’s instructions. Subsequently, when needed, each bacterial strain was inoculated and cultivated on Mueller–Hinton agar (HiMedia, Cadersky-Envitek, Prague, Czech Republic).
(§2) The antibacterial susceptibility was determined by a microdilution broth method according to standard M07-A10,[55] and the optimized protocol has been published previously.[56],[57] Briefly, Mueller–Hinton broth (MHB) adjusted to pH 7.4 (±0.2) was used as the test medium. […] The wells of the microdilution tray contained 200 μL of the MHB with 2-fold serial dilutions of the compounds and were inoculated with 10 μL of the bacterial suspension. The bacterial suspensions were controlled densitometrically to reach 1.5 × 10^8 viable CFU per 1 mL. The minimum inhibitory concentration (MIC) values, defined as 95% inhibition of bacterial growth, were determined after 24 h of incubation at 35 °C ± 1 °C.

[3] = test system: E. coli—clinical isolate A1235; test: Microdilution broth MIC; assay type: cell-based; details: Escherichia coli, 24 h
Protocol: as §1, §2

[4] = test system: E. faecium VRE—clinical isolate S2484; test: Microdilution broth MIC; assay type: cell-based; details: Enterococcus faecium, 24 h
Protocol: as §1, §2

[5] = test system: K. pneumoniae ESBL+—clinical isolate C1914; test: Microdilution broth MIC; assay type: cell-based; details: Klebsiella pneumoniae, 24 h
Protocol: as §1, §2

[6] = test system: P. aeruginosa MR—clinical isolate A1245; test: Microdilution broth MIC; assay type: cell-based; details: Pseudomonas aeruginosa, 24 h
Protocol: as §1, §2

[7] = test system: S. aureus CCM 4516; test: Microdilution broth MIC; assay type: cell-based; details: Staphylococcus aureus
Protocol: as §1, §2

[8] = test system: S. epidermidis—clinical isolate C1936; test: Microdilution broth MIC; assay type: cell-based; details: Staphylococcus epidermidis, 24 h
Protocol: as §1, §2

[9] = test system: anti-miR-21 oligo(2′-O-methylribonucleotide); test: DLS of dendriplexes with anti-miR-21 oligonucleotide; assay type: physicochemical; details: for mean diameter of dendriplex: 0.9% NaCl
Protocol: Dendriplexes were characterized by DLS using Zetasizer Nano-S (Malvern Panalytical, UK) equipped with a 632.8 nm laser, applying detection angle 173°. Mean diameters from the intensity-weighted size distribution are given. Average results from three consecutive sets of measurements generated by Malvern Zetasizer Software version 7.13 are presented.
Amphiphilic dendrons (1.5–73 μM) were mixed with the anti-miR-21:5′-m([…]) (500 nM) in 0.9% NaCl solution in milli-Q water. The dendrons’ concentrations were chosen to attain the charge ratio (CR, the ratio of cations over anions in the sample) of 1.2, 2.5, 5, 10, or 20. The samples were incubated for 15 min at rt prior to measurements.

[10] = Dynamic light scattering (DLS/MADLS) of micelles in physiological solution; assay type: physicochemical
Protocol: The size of micelles and micellar aggregates was estimated by the dynamic light scattering (DLS) method using NanoBrook OMNI ZetaPALS (Brookhaven Instruments, USA) with a detection angle 90° and 640 nm laser. The presented diameters are mean values from the intensity-weighted size distribution. The composition of the samples was as follows: dendron (1.0 mM) and NaCl (0.9%) in deionized water. The solutions were sonicated for 30 min, filtered through 0.45 μm Nylon syringe filters (Avantor, USA), placed in standard polystyrene cuvettes (BI-SCP, Brookhaven Instruments), and stored at 4 °C. All measurements were conducted at 25 °C. Measurement time was set to 5 min, and each measurement was repeated 5 times. The analysis of data was performed using Brookhaven Instruments software Particle Solutions v3.6.07136.
MADLS and size dependence on concentration and pH were measured on Zetasizer Ultra Red (Malvern Panalytical, UK) equipped with a 632.8 nm laser, applying detection angles 12.78°, 90°, and 174.7° in the case of MADLS measurements and 12.78° for size dependence measurements. MADLS and concentration dependence were measured in DTS0012 polystyrene cuvettes (Malvern Panalytical, UK); pH dependence was studied by acidobasic titration in DTS1070 folded capillary Zeta cell, using MPT-3 Multipurpose Titrator and DEG0003 Auto Degasser (all Malvern Panalytical, UK). The concentration dependence measurement started at 1.0 mM and the samples were diluted 2-fold until the minimum concentration 0.06 mM. For each concentration, the measurement was repeated 3 times giving 15 measurements in total. The pH dependence measurement started at pH 12; the titration was performed with a step of 2 and at each step, the measurement was repeated 3 times, giving 18 measurements in total. Malvern Panalytical software ZS Xplorer version 3.3.1.5 was used for the analysis of data.

[11] = 95% inhibition of growth, read-out: MIC

| Structure (SMILES) | MIC [1] [µM] | MIC [4] [µM] | MIC [5] [µM] | MIC [6] [µM] | PI of dendriplex ([9]; CR 1.2) | mean diameter of dendriplex ([9]; CR 1.2, anti-miR-21 500 nM) [μm] | PI of dendriplex ([9]; CR 2.5) | mean diameter of dendriplex ([9]; CR 2.5, anti-miR-21 500 nM) [μm] | PI of dendriplex ([9]; CR 5) | mean diameter of dendriplex ([9]; CR 5, anti-miR-21 500 nM) [μm] | PI of dendriplex ([9]; CR 10) | mean diameter of dendriplex ([9]; CR 10, anti-miR-21 500 nM) [μm] | MIC ([2]; CCM7929, 24 h) [µM] | MIC [3] [µM] | MIC ([7]; CCM4516, 24 h) [µM] | MIC [8] [µM] | also measured |
| --- | --- | --- | --- | --- | --- | --- | --- | --- | --- | --- | --- | --- | --- | --- | --- | --- | --- |
| CCCCCCCCCCCCNC(=O)c1ccc(OCCC[Si](CCCSCC(=O)NCCC[P+](c2ccccc2)(c2ccccc2)c2ccccc2)(CCCSCC(=O)NCCC[P+](c2ccccc2)(c2ccccc2)c2ccccc2)CCCSCC(=O)NCCC[P+](c2ccccc2)(c2ccccc2)c2ccccc2)cc1 [DnP3-1C12] | 3.13 | 1.15 | > 12.5 | > 12.5 | 0.07 | 0.14 | 0.2 | 0.9 | 0.3 | > 1 | 0.1 | > 1 |  |  |  |  | MIC ([2]; CCM7929, 24 h, 95% inhibition of growth, read-out: MIC): 6.25 µM; MIC [3, 11]: 12.5 µM; MIC ([7]; CCM4516, 24 h, 95% inhibition of growth, read-out: MIC): 3.13 µM; MIC [8, 11]: 1.56 µM |
| CCCCCCCCCCCCCCCCCCNC(=O)c1cc(OCCC[Si](CCCSCC(=O)NCCC[P+](c2ccccc2)(c2ccccc2)c2ccccc2)(CCCSCC(=O)NCCC[P+](c2ccccc2)(c2ccccc2)c2ccccc2)CCCSCC(=O)NCCC[P+](c2ccccc2)(c2ccccc2)c2ccccc2)cc(C(=O)NCCCCCCCCCCCCCCCCCC)c1 [DnP3-2C18] | > 12.5 | > 12.5 | > 12.5 | > 12.5 | 0.12 | 0.20 | 0.2 | 0.9 | 0.3 | > 1 | 0.23 | 0.22 | > 12.5 | > 12.5 | > 12.5 | > 12.5 | PDI ([10]; 1.0 mM dendron, 0.9% NaCl): ≈ 0.2; mean size (DLS, intensity-weighted) ([10]; 1.0 mM dendron, 0.9% NaCl, 25 °C, start of testing period): 14 nm; mean size (DLS, intensity-weighted) ([10]; 1.0 mM dendron, 0.9% NaCl, after 75 day testing period, stored at 4 °C): 26 nm; mean size of the second population (MADLS) ([10]; aggregates): 80 nm; mean diameter of the smaller particles (MADLS) ([10]; isolated micelles): 11.8 nm; PI of dendriplex ([9]; CR 20): 0.29; mean diameter of dendriplex ([9]; CR 20, anti-miR-21 500 nM): 0.17 μm |
| CCCCCCCCCCCCCCCCCCNC(=O)c1cc(OCCC[Si](CCCSCC(=O)NCCC[P+](c2ccccc2)(c2ccccc2)c2ccccc2)(CCCSCC(=O)NCCC[P+](c2ccccc2)(c2ccccc2)c2ccccc2)CCCSCC(=O)NCCC[P+](c2ccccc2)(c2ccccc2)c2ccccc2)cc(OCCC[Si](CCCSCC(=O)NCCC[P+](c2ccccc2)(c2ccccc2)c2ccccc2)(CCCSCC(=O)NCCC[P+](c2ccccc2)(c2ccccc2)c2ccccc2)CCCSCC(=O)NCCC[P+](c2ccccc2)(c2ccccc2)c2ccccc2)c1 [DnP6-1C18] | 6.25 | 6.25 | > 6.25 | > 6.25 | 0.05 | 0.18 | 0.3 | > 1 | 0.3 | > 1 | 0.3 | > 1 | > 6.25 | > 6.25 | 6.25 | 6.25 |  |
